The text below walks through data of patent US10695348B2, “Sulfonyl pyridyl TRP inhibitors” (Genentech, Inc., priority 2017, dated 2020).

For series [1], the target named is T1, human TRPA1 (Homo sapiens, UniProt O75762).
T1 construct: expressed in transfected cells; host or cells: CHO cells
In words: Human Ca2+ MAX IC50 calcium assay. The format is cell-based. The following applies: for IC50: Table 5, read-out: H Ca2+ MAX (human CA2+ MAX IC50); for affinity on human TRPA1, in words: as compared to compounds 1 and 2. The text has this:
Human Ca2+ MAX IC50 may be measured using one of the commercially available calcium assay kits provided by Molecular Devices, Abcam, Bio-Rad, Biovision, Enzo Lifesciences, Abnova, Sigma-Aldrich, or others.

Series [2] in a line: Human liver microsome clearance / stability. The following applies: for HLM (human liver microsome stability): human liver microsomes, Table 5; for HLM clearance, in words: as compared to compounds 1 and 2. It is filed as in vitro ADME. The text has this:
Human liver microsome clearance (mL/min/kg) may be measured according to the method described by Ackley et al, “Metabolic Stability Assessed by Liver Microsomes and Hepatocytes”, in “Optimization in Drug Discovery” in the “Methods in Pharmacology and Toxicology” series (ISSN 1557-2153), pp. 151-162 (Yan, Ed., Print ISBN 978-1-58829-332-9, Springer (2004), as well as by using commercially available assay kits by Cerep, Cyprotex, Bd Bioscience and others.
Human liver microsome HLM stability may be measured as using the procedure of Ackley et al. as described above.
A general note: Liver microsomes are a subcellular fraction often used to study metabolism.

The target in series [3] is T1, human TRPA1. Put plainly: FLIPR Tetra calcium influx assay, CHO cells expressing TRPA1, cinnamaldehyde agonist (hTRPA1 CHO Ca2+ AUC EVO). The format is cell-based. The following applies: CHO cells expressing human TRPA1; 75 uM cinnamaldehyde; Hill coefficient fixed to 1.5; read-out: hTRPA1 IC50 (hTRPA1 CHO Ca2+ AUC EVO (IC50)). As to the method: The IC50 ([…]) of compounds on the human and rat TRPA1 channels were determined using a FLIPR Tetra instrument. CHO cells expressing TRPA1 were plated into 384-well plates, incubated overnight at 37° C., and loaded with BD calcium indicator dye for 1 hr at 37° C. followed by 15 minutes at room temperature. The assay buffer was Hank's Balanced Salt Solution (HBSS) containing 20 mM HEPES (pH readjusted to 7.4) along with 0.02% BSA.
Following dye load and plate cool down, compounds were added to the cells using FLIPR Tetra. Plates were then incubated with compounds for 20 minutes at room temperature prior to adding agonist. Following this incubation, about an EC80 concentration of cinnamaldehyde (75 uM for human TRPA1 and 45 uM for rat TRPA1) was added to active the channels and block of cinnamaldehyde induced calcium influx was measured.
The IC50 results were fit with a standard Hill function, keeping the Hill coefficient (n) fixed to 1.5. Fixing the Hill coefficient will generally reduce variability of the IC50 determination. The IC50 results were individually examined to make sure the MIN and MAX points were set correctly prior to validation of the results.

SMILES strings stand for the structures.

T1 sequence (O75762 whole entry): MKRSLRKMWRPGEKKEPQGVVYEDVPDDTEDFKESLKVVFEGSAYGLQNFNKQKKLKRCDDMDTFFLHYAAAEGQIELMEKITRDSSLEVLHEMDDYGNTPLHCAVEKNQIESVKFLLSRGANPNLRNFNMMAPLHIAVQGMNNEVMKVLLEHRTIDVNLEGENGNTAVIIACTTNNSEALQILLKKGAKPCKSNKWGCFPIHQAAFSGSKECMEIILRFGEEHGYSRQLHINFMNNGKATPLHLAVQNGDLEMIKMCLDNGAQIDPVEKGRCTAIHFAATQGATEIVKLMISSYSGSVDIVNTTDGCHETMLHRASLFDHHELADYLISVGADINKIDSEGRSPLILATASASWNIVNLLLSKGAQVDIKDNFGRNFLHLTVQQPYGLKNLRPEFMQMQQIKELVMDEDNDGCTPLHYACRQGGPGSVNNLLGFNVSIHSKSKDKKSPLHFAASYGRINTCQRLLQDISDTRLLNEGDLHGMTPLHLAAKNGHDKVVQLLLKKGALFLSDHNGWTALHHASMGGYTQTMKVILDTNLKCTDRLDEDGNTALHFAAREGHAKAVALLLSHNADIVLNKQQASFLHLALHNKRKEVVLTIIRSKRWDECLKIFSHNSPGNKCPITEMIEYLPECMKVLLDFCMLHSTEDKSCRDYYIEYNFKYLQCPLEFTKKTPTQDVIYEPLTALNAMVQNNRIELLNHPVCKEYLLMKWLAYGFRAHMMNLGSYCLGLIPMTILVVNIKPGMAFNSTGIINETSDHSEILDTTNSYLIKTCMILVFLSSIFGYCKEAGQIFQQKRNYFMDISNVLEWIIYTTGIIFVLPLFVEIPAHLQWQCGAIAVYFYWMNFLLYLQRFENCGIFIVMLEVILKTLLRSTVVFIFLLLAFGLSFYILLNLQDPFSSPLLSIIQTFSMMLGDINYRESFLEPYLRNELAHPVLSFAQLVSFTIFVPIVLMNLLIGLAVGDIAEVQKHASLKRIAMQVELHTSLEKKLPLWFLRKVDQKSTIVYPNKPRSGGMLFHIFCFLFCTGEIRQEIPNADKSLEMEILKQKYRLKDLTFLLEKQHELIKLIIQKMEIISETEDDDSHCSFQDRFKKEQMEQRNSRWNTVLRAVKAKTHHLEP

Regarding `C[C@H]1[C@H](F)C[C@@H](C(=O)NCc2cc(-c3cnc(C(F)(F)F)nc3)ncc2C(F)(F)F)N1S(=O)(=O)c1ccc(F)cn1` (single isomer, unassigned) [Compound 1], the IC50 (commonly the concentration at which inhibition is half-maximal) at human TRPA1 [1] is 8 nM. Also, the “HLM (human liver microsome stability)” value in series [2] amounted to 4.1 mL/min/kg.

Regarding `C[C@H]1[C@H](F)C[C@@H](C(=O)NCc2cc(-c3cnc(C(F)(F)F)nc3)ncc2C(F)(F)F)N1S(=O)(=O)c1ccc(Cl)cn1` [Compound 2], on human TRPA1 [1], the IC50 came out at 6 nM. The “HLM (human liver microsome stability)” value in series [2] is 6.1 mL/min/kg.

Take `C[C@H]1[C@H](F)C[C@@H](C(=O)NCc2cc(-c3cnc(C(F)(F)F)nc3)ncc2C(F)(F)F)N1S(=O)(=O)c1cncc(F)c1` [Compound 3]: at human TRPA1 [1], the IC50 was determined as 21 nM. In series [2], the “HLM clearance, in words” value is recorded as “relatively high HLM clearance” and the “HLM (human liver microsome stability)” value came out at 19 mL/min/kg.

With `C[C@H]1[C@H](F)C[C@@H](C(=O)NCc2cc(-c3cnc(C(F)(F)F)nc3)ncc2C(F)(F)F)N1S(=O)(=O)c1ccc(C#N)nc1` [Compound 4], on human TRPA1 [1], the IC50 worked out at 41 nM and the “affinity on human TRPA1, in words” value is recorded as “low affinity”. Moreover, the “HLM (human liver microsome stability)” value in series [2] is 3.7 mL/min/kg.

As to `C[C@H]1[C@H](F)C[C@@H](C(=O)NCc2cc(-c3cnc(C(F)(F)F)nc3)ncc2C(F)(F)F)N1S(=O)(=O)c1ccncc1` [Compound 6], at human TRPA1 [1], the IC50 stood at 638 nM and the “affinity on human TRPA1, in words” value is “low affinity”. Further, in series [2], the “HLM clearance, in words” value was “relatively high HLM clearance” and the “HLM (human liver microsome stability)” value is 19 mL/min/kg.

With `C[C@H]1[C@H](F)C[C@@H](C(=O)NCc2cc(-c3cnc(C(F)(F)F)nc3)ccc2C#N)N1S(=O)(=O)c1ccc(F)cn1` [[10], (2S,4R,5S)—N-(2-cyano-5-(2-(trifluoromethyl)pyrimidin-5-yl)benzyl)-4-fluoro-1-(5-fluoropyridin-2-ylsulfonyl)-5-methylpyrrolidine-2-carboxamide], the IC50 at human TRPA1 [3] was found to be 66.9 nM.

As to `C[C@H]1[C@H](F)C[C@@H](C(=O)NCc2cc(-c3cnc(C(F)(F)F)nc3)ncc2OC(F)(F)F)N1S(=O)(=O)c1ccc(F)cn1` [[11], (2S,4R,5S)-4-fluoro-1-(5-fluoropyridin-2-ylsulfonyl)-5-methyl-N-((5-(trifluoromethoxy)-2-(2-(trifluoromethyl)pyrimidin-5-yl)pyridin-4-yl)methyl)pyrrolidine-2-carboxamide], the IC50 at human TRPA1 [3] worked out at 6.73 nM.

As to `C[C@H]1[C@H](F)C[C@@H](C(=O)NCc2cc(-c3cnc(C(F)(F)F)nc3)ncc2F)N1S(=O)(=O)c1ccc(F)cn1` [[12], (2S,4R,5S)-4-fluoro-N-((5-fluoro-2-(2-(trifluoromethyl)pyrimidin-5-yl)pyridin-4-yl)methyl)-1-(5-fluoropyridin-2-ylsulfonyl)-5-methylpyrrolidine-2-carboxamide], the IC50 at human TRPA1 [3] was 103 nM.

Regarding `C[C@H]1[C@H](F)C[C@@H](C(=O)NCc2cc(-c3cnc(C(F)(F)F)nc3)ncc2C#N)N1S(=O)(=O)c1ccc(F)cn1` [[13], (2S,4R,5S)—N-((5-cyano-2-(2-(trifluoromethyl)pyrimidin-5-yl)pyridin-4-yl)methyl)-4-fluoro-1-(5-fluoropyridin-2-ylsulfonyl)-5-methylpyrrolidine-2-carboxamide], the IC50 at human TRPA1 [3] was 89.8 nM.

In the case of `C[C@H]1[C@H](F)C[C@@H](C(=O)NCc2cc(-c3cnc(C(F)(F)F)nc3)cnc2C(F)F)N1S(=O)(=O)c1ccc(F)cn1` [[14], (2S,4R,5S)—N-((2-(difluoromethyl)-5-(2-(trifluoromethyl)pyrimidin-5-yl)pyridin-3-yl)methyl)-4-fluoro-1-(5-fluoropyridin-2-ylsulfonyl)-5-methylpyrrolidine-2-carboxamide], the IC50 at human TRPA1 [3] is 75.1 nM.

`C[C@H]1[C@H](F)C[C@@H](C(=O)NCc2cc(-c3cnc(C(F)(F)F)nc3)cnc2C(F)(F)F)N1S(=O)(=O)c1ccc(F)cn1` [[15], (2S,4R,5S)-4-fluoro-1-(5-fluoropyridin-2-ylsulfonyl)-5-methyl-N-((2-(trifluoromethyl)-5-(2-(trifluoromethyl)pyrimidin-5-yl)pyridin-3-yl)methyl)pyrrolidine-2-carboxamide]: on human TRPA1 [3], the IC50 amounted to 47.7 nM.
